# Assay results: publication PMC7763444, “Bioactive Steroids from the Red Sea Soft Coral Sinularia polydactyla” (Marine Drugs, 2020)
# Legend:
# [1] = test system: ELAM (E-selectin, CD62E) on HUVEC; assay: Cell-surface ELISA CD62E (E-selectin, ELAM) after TNFα stimulation; format: cell-based, human; details: 10 µM; 30 min pre-treatment, then TNFα for 4 h
# Experimental: TNFα stimulates NFκB (nuclear factor kappa-light-chain-enhancer of activated B cells) and thus E-selectin (CD62E, ELAM). Endothelial cells were pre-treated for 30 min with the tested compounds and then activated with TNFα for 4 h. Curcumin, which inhibits activation of NF-κB and thus inhibits expression and activity of the COX-2 gene induced by TNFα [21], was used as a positive control, decreasing ELAM production to 25% at 10 µM.
# An enzyme-linked immunosorbent assay (ELISA) was used to detect the levels of the cell adhesion molecule ELAM in HUVEC cells after 30 min of incubation with the tested compounds and 4 h of stimulation with TNFα, as previously described.
# the cell surface of endothelial cells that were pretreated with 10 µM compounds for 30 min and
# subsequently stimulated with 10 ng/ml TNFα for 4 h. Data are means ± SDs ( n = 3).
# (1 picture or pasted object on this page, not shown here)
# [2] = test system: neuron-like SH-SY5Y cells; assay: Neuroprotection in 3-NPA-induced model of Huntington's disease, Calcein AM viability; format: cell-based, human; details: 20 mM 3-NPA alone, 48 h
# [3] = Stability of the isolated metabolite during structure elucidation; format: physicochemical; details: degraded prior to the acquisition of heteronuclear NMR spectra
# Description: Compound 2 shared quite similar spectroscopic features with 1. In particular, all signals attributed to the steroidal nucleus, with the most prominent being the signals of the two angular methyls H3-18 and H3-19 (δH 1.09 and 0.94, respectively), the methyl at C-4 (δH 1.04), the oxymethine H-3 (δH 3.10), and the two olefinic protons H-9 and H-11 (δH 5.27 and 5.41, respectively), were also evident in the ^1H NMR spectrum of compound 2 (Table 1). The most significant difference observed was the replacement of the 1,2-disubstituted double bond in the side chain of 1 by a 1,1-disustituted double bond (δH 4.63 and 4.70) in the side chain of 2. The correlations observed in the COSY spectrum of 2 identified the relevant spin systems; however, metabolite 2 was proven unstable and degraded prior to the acquisition of heteronuclear NMR spectra. Nevertheless, the high structural similarity of 2 with compound 1 renders safe the proposed identification of 2 as (9E)-3β-hydroxy-4α,24-dimethyl-8,9-seco-5α-cholesta-9(11),24(28)-dien-8-one.
structure (smiles),measurement,setting,value
COc1cc(/C=C/C(=O)CC(=O)/C=C/c2ccc(O)c(OC)c2)ccc1O [Curcumin],ELAM production (decreased to),[1],25%
"O=C(O)CC[N+](=O)[O-] [Compound 3-NPA, 3-nitropropionic acid]",Decrease in cell viability,[2],approx. 70%
"C=C(CC[C@@H](C)[C@H]1CC[C@H]2C(=O)CC[C@H]3[C@H](C)[C@@H](O)CC[C@]3(C)/C=C/C[C@]12C)C(C)C [Compound 2, (9E)-3β-hydroxy-4α,24-dimethyl-8,9-seco-5α-cholesta-9(11),24(28)-dien-8-one]",Stability,[3],unstable
